According to US20200375987A1, “METALLO-BETA-LACTAMASE INHIBITORS AND METHODS OF USE THEREOF” (priority 2018, published 2020):

Columns and labels:
[1] = tested on: P. aeruginosa MB9798 (efflux WT, IMP-1); experiment: Efflux: concentration of MBL inhibitor restoring susceptibility to imipenem (MITC95), efflux+ strain; type: cell-based, Pseudomonas aeruginosa; details: imipenem at 2 μg/mL in the presence of a class A, C, D serine β-lactamase inhibitor closely related to relebactam
Excerpt: (§1) In order to assess the contribution of efflux to lack of whole cell inhibition of metallo-beta-lactamase inhibitors of formula I, tool strains were constructed. The strain background is Pseudomonas aeruginosa PAO1. A wild-type (MB5919) and an isogenic strain in which multiple efflux pumps have been disrupted genetically were used. The MBL IMP-1, obtained from a clinical isolate was introduced into the strain pair by the following process:
(§2) Plasmid DNA (encoding IMP-1) was extracted from CL 5673 (IMP-1, P. aeruginosa clinical strain) by standard techniques. The plasmid DNA was transformed into parental MB5919 (oprD+, efflux+, inducible AmpC) and MB5890 (oprD+, efflux−, inducible AmpC) isogenic strains by electroporation. These transformed strains were plated onto cation-adjusted Muller-Hinton agar plates containing ceftazidime at 32 μg/mL (MB5919) and 16 μg/mL (MB5890) to select for those cells in which the IMP-1-expressing plasmid was introduced successfully, resulting in resistance to ceftazidime. Agarose-gel electrophoresis of PCR product for IMP-1 from the successful transformants was used to compare to control and to the original strain from which the plasmid was obtained, confirming transfer of the IMP-1 gene (data not shown).
(§3) The strain set was then used as a pair to determine the effect of metallo-β-lactamase inhibitors of Formula Ion the MIC of imipenem and/or ceftazidime. A fixed concentration of antibiotic is included in standard microbroth MIC tests, usually at the CLSI breakpoint concentration. A fixed amount of a class A/C beta-lactamase inhibitor is also included to inhibit the resident Pseudomonas AmpC enzyme. A serial titration of the metallo-β-lactamase inhibitor was included and the concentration of metallo-β-lactamase inhibitor which restores susceptibility of the strain to the included antibiotic was recorded. That concentration of metallo-β-lactamase inhibitor was then compared between the two strains to determine the fold difference between the efflux+(MB9798) and efflux−(MB9799) strains, which indicates n the extent to which the MBLi is subject to efflux.

NDM-1 = NDM-1 (Klebsiella pneumoniae, UniProt C7C422); experiment: Enzyme activity: determination of IC50, fluorescence assay with CCF2-FA substrate (NDM-1); type: biochemical; details: 1 pM enzyme, 1.25 μM CCF2-FA, 2 hours at 25° C.; read-out: NDM1 IC50
Chain of NDM-1 (C7C422 29-270, looked up, species assumed): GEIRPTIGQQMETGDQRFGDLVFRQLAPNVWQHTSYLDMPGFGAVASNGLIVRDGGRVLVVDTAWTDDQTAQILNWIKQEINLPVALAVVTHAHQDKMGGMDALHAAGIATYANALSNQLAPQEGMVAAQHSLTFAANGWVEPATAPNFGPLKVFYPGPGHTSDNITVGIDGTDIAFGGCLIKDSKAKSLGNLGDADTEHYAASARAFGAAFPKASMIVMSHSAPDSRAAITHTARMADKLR
Description: (§4) The Class B enzyme activities were measured in the presence of the test inhibitor in a fluorescence assay against a commercially available substrate consisting of a cephalosporin core linking 7-hydroxycoumarin to fluorescein (CCF2-FA). The enzyme (NDM-1, IMP-1 or VIM-1) and the substrate were diluted in 100 mM KH2PO4 buffer (pH 7) containing 0.005% Tween-20 and 10 μM ZnSO4. In the assay, the final concentration of enzyme was 1 pM, 2 pM and 30 pM for NDM-1, IMP-1 and VIM-1, respectively, and the final concentration of CCF2-FA was 1.25 μM. The test inhibitor was dissolved in dimethylsulfoxide and diluted 1:50 in the assay, resulting in a final concentration range of 20 μM to 0.00063 μM. In a 384-well microplate, the test inhibitor was incubated with the metallo-β-lactamase enzyme and the substrate for 2 hours at 25° C. Fluorescence at 460 nm following excitation at 405 nm was measured. The IC50 value was determined from semi-logarithmic plots of enzyme inhibition versus inhibitor concentration, with a curve generated using a 4-parameter fit.

VIM-1 = VIM-1 (Pseudomonas aeruginosa, UniProt A0A0F7KYQ8); experiment: Enzyme activity: determination of IC50, fluorescence assay with CCF2-FA substrate (VIM-1); type: biochemical; details: 30 pM enzyme, 1.25 μM CCF2-FA, 2 hours at 25° C.; read-out: VIM1 IC50
Description: as §4

VIM-2 = VIM-2 (Escherichia coli, UniProt Q5U7L7); experiment: Enzyme activity: determination of IC50 (VIM-2); type: biochemical; details: read-out: VIM2 IC50
[2] = tested on: Serratia marcescens expressing IMP-1 (CL5741); experiment: Antibiotic potentiation activity: synergistic concentration (MITC95) with imipenem; type: cell-based; details: imipenem 1 μg/mL; lowest concentration inhibiting 95% of growth; 35° C., 22-24 hours
Description: (§5) The bacterial strains tested included the clinical strains Escherichia coli expressing NDM-1 (CLB30005, CLB30016), Serratia marcescens expressing IMP-1 (CL5741), and Klebsiella pneumoniae expressing VIM-1 (IHMA599644). Inhibitor activity was measured in the presence and absence of imipenem in a 384-well microplate.
(§6) The clinical strains CLB30016, CL5741 and IHMA599644 were grown on trypticase soy agar containing 5% sheep's blood. The bacteria on agar plates were incubated at 35° C. with humidity overnight. The following day, individual colonies from each clinical strain were picked and resuspended in 5 mL saline to attain an OD600 of 0.14, 0.11, 0.15 and 0.13, for CLB30016, CL5741 and IHMA599644, respectively. These were further diluted 1:100 into 1.1× CAMHB and used to inoculate the test wells as described below.
(§7) Imipenem in 10 mM 3-(N-morpholino)propanesulfonic acid (MOPS, pH 7) was stored in single use aliquots at −80° C. […] On the day of the assay, 4 μl of antibiotic was added to 45 μl of bacteria followed by 1 μl of test compound and mixed by pipetting and with an orbital shaker. The concentration of antibiotic used in the assay was 1 μg/mL. Microplates were covered and incubated at 35° C. for 22 hours to 24 hours. At the end of the incubation, absorbance was determined using a spectrophotometer. The synergistic concentration of MBLI was determined by identifying the lowest concentration of test compound in the presence of a given concentration of antibiotic that was required to inhibit 95% of the growth of the bacteria. The results for Examples 1-209 are reported in Table 1, expressed as the concentration of compound that potentiated the action of antibiotic (imipenem) affecting 95% inhibition of bacterial growth (MITC95).

[3] = tested on: Escherichia coli expressing NDM-1 (CLB30016); experiment: as above; type: cell-based; details: imipenem 1 μg/mL; lowest concentration inhibiting 95% of growth; 35° C., 22-24 hours
Description: as §5, §6, §7

[4] = tested on: Klebsiella pneumoniae expressing VIM-1 (IHMA599644); experiment: as above; type: cell-based; details: imipenem 1 μg/mL; lowest concentration inhibiting 95% of growth; 35° C., 22-24 hours
Description: as §5, §6, §7

IMP-1 = IMP-1 (Serratia marcescens, UniProt P52699); experiment: Enzyme activity: determination of IC50, fluorescence assay with CCF2-FA substrate (IMP-1); type: biochemical; details: 2 pM enzyme, 1.25 μM CCF2-FA, 2 hours at 25° C.; read-out: IMP1 IC50
Chain of IMP-1 (P52699 19-246, looked up, species assumed): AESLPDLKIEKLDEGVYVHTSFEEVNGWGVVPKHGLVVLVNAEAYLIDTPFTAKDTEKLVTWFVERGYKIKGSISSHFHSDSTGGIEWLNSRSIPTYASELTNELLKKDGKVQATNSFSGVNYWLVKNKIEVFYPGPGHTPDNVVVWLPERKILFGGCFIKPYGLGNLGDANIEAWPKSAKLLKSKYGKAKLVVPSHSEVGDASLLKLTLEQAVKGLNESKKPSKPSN
Description: as §4

[5] = tested on: P. aeruginosa MB9799 (efflux mutant, IMP-1); experiment: Efflux: concentration of MBL inhibitor restoring susceptibility to imipenem (MITC95), efflux− strain; type: cell-based, Pseudomonas aeruginosa; details: imipenem at 2 μg/mL in the presence of a class A, C, D serine β-lactamase inhibitor closely related to relebactam
Excerpt: as §1, §2, §3

Row | SMILES | MB9798 MITC95 P. aeruginosa Efflux WT [1] | IC50 (NDM-1) | IC50 (VIM-1) | IC50 (VIM-2) | CL5741 S.marcescens MITC95 uM IMP [2] | CLB30016 E.coli MITC95 NDM [3] | IHMA599644 K.pneumoniae MITC95 uM VIM [4] | IC50 (IMP-1) | MB9799 MITC95 P. aeruginosa Efflux Mutant [5]
1 | NS(=O)(=O)c1c(S(=O)(=O)N[C@@H]2CCNC2)ccc(N2CCn3ncnc3C2)c1-c1nn[nH]n1 [Example 1, (R)-4-(5,6-dihydro-[1,2,4]triazolo[1,5-a]pyrazin-7(8H)-yl)-N′-(pyrrolidin-3-yl)-3-(2H-tetrazol-5-yl)benzene-1,2-disulfonamide] | 6.25 µM | 1.57 nM | 0.29 nM | 0.99 nM | 1.56 µM | 3.13 µM | 6.25 µM | 4.03 nM | 1.56 µM
2 | NS(=O)(=O)c1c(S(=O)(=O)N[C@@H]2CCNC2)ccc(N2CCCn3nccc32)c1-c1nn[nH]n1 [Example 7, (R)-4-(6,7-dihydropyrazolo[1,5-a]pyrimidin-4(5H)-yl)-N^1-(pyrrolidin-3-yl)-3-(2H-tetrazol-5-yl)benzene-1,2-disulfonamide] | 3.13 µM | 0.14 nM | 0.13 nM | 0.66 nM | 3.13 µM | 6.25 µM | 6.25 µM | 2.81 nM | 1.56 µM
3 | NC[C@@H](O)CNS(=O)(=O)c1ccc(N2CCC(CO)n3ccnc32)c(-c2nn[nH]n2)c1S(N)(=O)=O (stereo partly drawn) [Example 38, N1-((R)-3-amino-2-hydroxypropyl)-4-(5-(hydroxymethyl)-6,7-dihydroimidazo[1,2-a]pyrimidin-8(5H)-yl)-3-(2H-tetrazol-5-yl)benzene-1,2-disulfonamide] | 1.56 µM | 0.64 nM | 0.4 nM | 2.42 nM | 0.78 µM | 0.20 µM | 1.56 µM | 4.17 nM | 0.78 µM
4 | NS(=O)(=O)c1c(S(=O)(=O)N[C@@H]2CCNC2)ccc(N2Cc3cccnc3C2)c1-c1nnn[nH]1 [Example 22, 4-(5,7-dihydro-6H-pyrrolo[3,4-b]pyridin-6-yl)-N1-[(3R)-pyrrolidin-3-yl]-3-(1H-tetrazol-5-yl)benzene-1,2-disulfonamide] | 3.13 µM | 0.62 nM | 0.59 nM | 2.31 nM | 3.13 µM | 0.78 µM | 6.25 µM | 0.17 nM | 1.56 µM
5 | C[C@H](CN)NS(=O)(=O)c1ccc(N2CCCn3ccnc32)c(-c2nnn[nH]2)c1S(N)(=O)=O [Example 17, (R)-N1-(1-aminopropan-2-yl)-4-(6,7-dihydroimidazo[1,2-a]pyrimidin-8(5H)-yl)-3-(1H-tetrazol-5-yl)benzene-1,2-disulfonamide] | 1.56 µM | 0.36 nM | 0.22 nM | 1.11 nM | 0.78 µM | 0.78 µM | 1.56 µM | 2.17 nM | 0.78 µM
6 | NS(=O)(=O)c1c(S(=O)(=O)N[C@@H]2CCNC2)ccc(N2CCc3cccnc32)c1-c1nnn[nH]1 [Example 32, 4-(2,3-dihydro-1H-pyrrolo[2,3-b]pyridin-1-yl)-N1-[(3R)-pyrrolidin-3-yl]-3-(1H-tetrazol-5-yl)benzene-1,2-disulfonamide] | 3.13 µM | 0.21 nM | 0.17 nM | 0.39 nM | 1.56 µM | 1.56 µM | 3.13 µM | 1.14 nM | 1.56 µM
7 | NS(=O)(=O)c1c(S(=O)(=O)N[C@@H]2CCNC2)ccc(N2CCn3nc(C(F)(F)F)nc3C2)c1-c1nn[nH]n1 [Example 4, (R)—N^1-(pyrrolidin-3-yl)-3-(2H-tetrazol-5-yl)-4-(2-(trifluoromethyl)-5,6-dihydro-[1,2,4]triazolo[1,5-a]pyrazin-7(8H)-yl)benzene-1,2-disulfonamide] | 25.00 µM | 2.25 nM | 0.35 nM | 0.48 nM | 6.25 µM | 3.13 µM | 6.25 µM | 2.18 nM | 3.13 µM
8 | NS(=O)(=O)c1c(S(=O)(=O)N[C@@H]2CCNC2)ccc(N2CCCn3cnnc32)c1-c1nn[nH]n1 [Example 6, (R)-4-(6,7-dihydro-[1,2,4]triazolo[4,3-a]pyrimidin-8(5H)-yl)-N^1-(pyrrolidin-3-yl)-3-(2H-tetrazol-5-yl)benzene-1,2-disulfonamide] | 3.13 µM | 0.72 nM | 0.24 nM | 1.13 nM | 3.13 µM | 0.78 µM | 6.25 µM | 6.8 nM | 3.13 µM
9 | NS(=O)(=O)c1c(S(=O)(=O)N[C@@H]2CCNC2)ccc(N2CCc3ncc(O)cc3C2)c1-c1nnn[nH]1 [Example 24, 4-(3-hydroxy-7,8-dihydro-1,6-naphthyridin-6(5H)-yl)-N1-[(3R)-pyrrolidin-3-yl]-3-(1H-tetrazol-5-yl)benzene-1,2-disulfonamide] | 25.00 µM | 0.28 nM | 0.19 nM | 0.74 nM | 1.56 µM | 0.39 µM | 3.13 µM | 1.39 nM | 3.13 µM
